In publication PMC6790676, “Increase in lysophosphatidate acyltransferase activity in oilseed rape (Brassica napus) increases seed triacylglycerol content despite its low intrinsic flux control coefficient” (The New Phytologist, 2019):

Tested on: T1, LPAAT (lysophosphatidate acyltransferase, microsomal preparations)
T1 construct: gene LPAT2; native microsomes from 27 DAF embryos; several endogenous ER isoenzymes
Experiment: […]-PA formation, TLC; bi-substrate rate equation fit
Type: biochemical
Conditions: 50 mM Tris pH 7.5, 1 mg/ml BSA, 30°C, 10 min, embryo microsomes, line not told

Row | Km (co-substrate LPA at high concentration, labelled compound (1-14C-oleoyl-CoA)) | Km (co-substrate 1-14C-oleoyl-CoA at high concentration) | Compound
1 | 103 µM | – | CCCCCCCC/C=C\CCCCCCCC(=O)SCCNC(=O)CCNC(=O)[C@H](O)C(C)(C)COP(=O)(O)OP(=O)(O)OC[C@H]1O[C@@H](n2cnc3c(N)ncnc32)[C@H](O)[C@@H]1OP(=O)(O)O [oleoyl-CoA]
2 | – | 15.2 µM | CCCCCCCC/C=C\CCCCCCCC(=O)OC[C@@H](O)COP(=O)(O)O [LPA]
